Experimental data reported in publication PMC5485171 (Diabetes, Obesity & Metabolism, 2017).

Tested on: patients with type 2 diabetes
Experiment: Adverse events
Type: in vivo, human
[1] = 28 weeks, as‐treated, number (%) of patients, n = 181 / 122
[2] = 28 weeks, most common AEs (≥5% of patients)

N[C@@H](CC(=O)N1CCn2c(nnc2C(F)(F)F)C1)Cc1cc(F)c(F)cc1F [Sitagliptin, sitagliptin]
symptoms of hypoglycaemia, number of recipients (28 weeks): 7 recipients
AEs leading to withdrawal [1]: 0 (0.0) n (%)
Cardiovascular events (adjudicated) [1]: 0 (0.0) n (%)
Gastrointestinal AEs [1]: 9 (7.4) n (%)
Gastrointestinal AEs: Diarrhea [1]: 2 (1.6) n (%)
Gastrointestinal AEs: Dyspepsia [1]: 1 (0.8) n (%)
Gastrointestinal AEs: Nausea [1]: 2 (1.6) n (%)
Gastrointestinal AEs: Vomiting [1]: 0 (0.0) n (%)
Hypoglycaemia: Major [1]: 0 (0.0) n (%)
Injection‐site‐related AEs [1]: 0 (0.0) n (%)
Injection‐site‐related AEs: Bruising [1]: 0 (0.0) n (%)
Injection‐site‐related AEs: Induration [1]: 0 (0.0) n (%)
Injection‐site‐related AEs: Nodules [1]: 0 (0.0) n (%)
Injection‐site‐related AEs: Pruritus [1]: 0 (0.0) n (%)
Pancreatic cancer (adjudicated) [1]: 0 (0.0) n (%)
Pancreatitis (adjudicated) [1]: 0 (0.0) n (%)
Renal failure [1]: 0 (0.0) n (%)
Serious AEs [1]: 0 (0.0) n (%)
Symptoms of hypoglycaemia [1]: 7 (5.7) n (%)
Thyroid neoplasms (adjudicated) [1]: 0 (0.0) n (%)
nasopharyngitis, proportion of patients [2]: 0.0%
nausea, proportion of patients [2]: 1.6%
Hypoglycaemia: Minor (28 weeks, symptoms and glucose <54 mg/dL, number (%) of patients, n = 181 / 122): 1 (0.8) n (%)
AEs reported, proportion of recipients (28‐week treatment period): 32.8%
Any AE (28‐week treatment period, as‐treated, exenatide 2.0 mg QW sc (n = 181), sitagliptin 100 mg once daily oral (n = 122), number (%) of patients): 40 (32.8) n (%)
